Legend:
collagenase 1 RNA = assay: Quantitative real-time RT-PCR of collagenase 1 RNA in IL-1β-treated ACGs; format: cell-based, human; conditions: ACG, 24 hours
Description: (§1) ACGs were constructed from the human chondrocyte strain Cc 05912 1°, which was isolated and propagated in Dubelcco's-Modified Eagle's Medium with. 10% fetal bovine serum (DMEM/10% FBS). After propagation, the cells were used to assemble ACGs on type II collagen coated Millipore Millicell-CM filters at a density of 2 million cells/cm^2, using the procedure described in U.S. Pat. No. 5,326,357. The ACGs were grown in defined ACG media (DMEM/2×ITS×(Invitrogen # 51500-056), 2% Human Serum Albumin) supplemented with 5 ng/ml TGF-β2 and 100 μg/ml ascorbic acid. After three weeks in culture, the levels of aggrecan and collagen type II expression in the ACGs peaked and leveled off. […]
(§2) After incubation with IL-1β for 24 hours, a group of the ACGs from Example 2 were harvested for quantitative real-time RT-PCR by snap freezing them in LN2. For quantitative real-time RT-PCR total RNA was isolated from the ACGs with TRIzol™ Reagent (Invitrogen # 15596-026) with subsequent cleanup using the Qiagen Rneasy™ Mini Kit (Qiagen # 74104). Contaminating DNA was removed from total RNA samples using the Ambion DNA-free kit (Ambion # 1906). cDNA synthesis was performed on 1 […] of each sample using the Amersham Ready-To-Go You-Prime First-Strand Beads™ (Amersham # 27-9264-01) primed with oligo dT. Reverse transcriptase activity was measured using the PicoGreen™ dsDNA quantitation Kit (Molecular Probes # P-7589). […]

[1] = tested on: Hartley guinea pig model of osteoarthritis; conditions: U.S. Pat. No. 5,591,740; cited from earlier work
collagenase 3 RNA = assay: Quantitative real-time RT-PCR of collagenase 3 RNA in IL-1β-treated ACGs; format: cell-based, human; conditions: ACG, 24 hours
Description: as §1, §2

[2] = tested on: articular cartilage grafts (ACGs); assay: Histological assessment (toluidine blue) of proteoglycan and collagen levels in ACGs; format: cell-based, human; conditions: ACG; for presence or loss of proteoglycans, toluidine blue stain: 24 hours
Description: ACGs were constructed from the human chondrocyte strain Cc 05912 1°, which was isolated and propagated in Dubelcco's-Modified Eagle's Medium with. 10% fetal bovine serum (DMEM/10% FBS). After propagation, the cells were used to assemble ACGs on type II collagen coated Millipore Millicell-CM filters at a density of 2 million cells/cm^2, using the procedure described in U.S. Pat. No. 5,326,357. The ACGs were grown in defined ACG media (DMEM/2×ITS×(Invitrogen # 51500-056), 2% Human Serum Albumin) supplemented with 5 ng/ml TGF-β2 and 100 μg/ml ascorbic acid. After three weeks in culture, the levels of aggrecan and collagen type II expression in the ACGs peaked and leveled off.
After three weeks, the IL-1β (R&D Systems # 201-LB) and DBH incubations began. All of the preincubations and subsequent incubations were performed in DMEM. First all of the ACGs were washed twice with DMEM. Sample 1 ACGs were harvested for histology and gene expression analysis at the onset of the experiment. Next, 2 hour preincubations were performed on four groups, in triplicate for both histology and gene expression analysis. Sample 2 ACGs received 250 μl of DMEM to the inside and outside of the ACG. Sample 3 ACGs received the same. Sample 4 ACGs received 5 μm DBH in the same volumes as the other groups to the inside and outside of the Millicell filter containing the ACGs. Sample 5 ACGs received DMSO in the same volume as the DBH group as a vehicle control. The ACGs were then incubated for 2 hours. After the 2 hour preincubation with DBH, IL-1β incubation was added. Sample 2 received another 250 μl of DMEM in addition to the 250 μl that was added at the preincubation step. Sample 3 received 250 μl, inside and out, of DMEM with IL-1β at a final concentration of 2 ng/ml. Sample 4 also received IL-1β with the addition of more DBH to compensate for the volume change of DMEM to keep the concentration of 5 μm. Sample 5 also received IL-1β with an adjustment of the DMSO levels to compensate for the volume change of the DMEM.
After incubation with-lL-1β for 24 hours, a group of the ACGs from Example 2 were fixed in 10% neutral buffered formalin and embedded in paraffin. Sections were cut and stained with toluidine blue to assess the presence or loss of proteoglycans in the ACGs.

[3] = tested on: chondrocyte monolayer cultures; conditions: U.S. Pat. No. 5,591,740; cited from earlier work
stromelysin RNA = assay: Quantitative real-time RT-PCR of stromelysin RNA in IL-1β-treated ACGs; format: cell-based, human; conditions: ACG, 24 hours
Description: as §1, §2

aggrecanase 1 RNA = assay: Quantitative real-time RT-PCR of aggrecanase 1 RNA in IL-1β-treated ACGs; format: cell-based, human; conditions: ACG, 24 hours
Description: as §1, §2

aggrecanase 2 RNA = assay: Quantitative real-time RT-PCR of aggrecanase 2 RNA in IL-1β-treated ACGs; format: cell-based, human; conditions: ACG, 24 hours
Description: as §1, §2

[4] = 5 μm DBH (2 hour preincubation) + IL-1β 2 ng/ml

Row | % reduction of IL-1β-induced gene expression with DBH, collagenase 1 (collagenase 1 RNA; [4]) [%] | % reduction of IL-1β-induced gene expression with DBH, collagenase 3 (collagenase 3 RNA; [4]) [%] | % reduction of IL-1β-induced gene expression with DBH, aggrecanase 1 (aggrecanase 1 RNA; [4]) [%] | % reduction of IL-1β-induced gene expression with DBH, aggrecanase 2 (aggrecanase 2 RNA; [4]) [%] | Molecule | preexisting cartilage damage [1] | presence or loss of proteoglycans, toluidine blue stain ([2]; IL-1β 2 ng/ml and 5 μm DBH) | loss of proteoglycans and collagen, histological staining ([2]; IL-1β and DBH) | IL-1 induced degradation of matrix proteins [3] | % reduction of IL-1β-induced gene expression with DBH, stromelysin (stromelysin RNA; [4]) [%] | Fold Induction by IL-1β, collagenase 1 (collagenase 1 RNA; IL-1β 2 ng/ml, RNA by Q RT-PCR) | Fold Induction by IL-1β, collagenase 3 (collagenase 3 RNA; IL-1β 2 ng/ml, RNA by Q RT-PCR) | presence or loss of proteoglycans, toluidine blue stain ([2]; IL-1β 2 ng/ml alone) | loss of proteoglycans and collagen, histological staining ([2]; IL-1β alone) | Fold Induction by IL-1β, stromelysin (stromelysin RNA; IL-1β 2 ng/ml, RNA by Q RT-PCR) | Fold Induction by IL-1β, aggrecanase 1 (aggrecanase 1 RNA; IL-1β 2 ng/ml, RNA by Q RT-PCR) | Fold Induction by IL-1β, aggrecanase 2 (aggrecanase 2 RNA; IL-1β 2 ng/ml, RNA by Q RT-PCR)
1 | 66 | 55 | 65 | 56 | NC1=N/C(=C2/CCNC(=O)c3[nH]ccc32)C(=O)N1 [DBH, debromohymenialdesine] | reduces preexisting cartilage damage | decreased loss of proteoglycans | reduces the loss of proteoglycans and collagen | inhibits IL-1 induced degradation of matrix proteins | 57 |  |  |  |  |  |  | 
2 |  |  |  |  | IL-1β: inflammatory cytokine (R&D Systems # 201-LB) used to induce osteoarthritic cartilage damage in ACGs |  |  |  |  |  | 183 | 17 | marked loss of proteoglycans | causes the loss of proteoglycans and collagen | 168 | 4 | 4

Source: patent publication US20050074744A1, “Assays for evaluating anti-osteoarthritic activity” (priority 2003, published 2005)
